Assay results published in ChEMBL document CHEMBL6109105, “Design, synthesis and antibacterial evaluation of oxazolidinone derivatives containing N-methylglycyl or quaternary ammonium salts” (Bioorg Med Chem, 2025).
In brackets after ≈: the same amount, converted by molar mass.

Key:
[1] = test system: Staphylococcus aureus; assay: Antibacterial activity against Staphylococcus aureus ATCC 29213 assessed as inhibition of bacterial growth incubated for 16 to 18 hrs by microbroth dilution method; assay type: functional; conditions: time 16-18 hrs, read-out: MIC100
[2] = test system: Enterococcus faecalis; assay: Antibacterial activity against Enterococcus faecalis ATCC 29212 assessed as inhibition of bacterial growth incubated for 16 to 18 hrs by microbroth dilution method; assay type: functional; conditions: time 16-18 hrs, read-out: MIC100
[3] = test system: Escherichia coli; assay: Antibacterial activity against Escherichia coli ATCC 25922 assessed as inhibition of bacterial growth incubated for 16 to 18 hrs by microbroth dilution method; assay type: functional; conditions: time 16-18 hrs, read-out: MIC100
[4] = test system: Stenotrophomonas maltophilia; assay: Antibacterial activity against Stenotrophomonas maltophilia ATCC 17808 assessed as inhibition of bacterial growth incubated for 16 to 18 hrs by microbroth dilution method; assay type: functional; conditions: time 16-18 hrs, read-out: MIC100
[5] = Hemolytic activity in sheep RBC assessed as hemolysis incubated for 1 hrs by microplate reader analysis; assay type: toxicity, cell-based, Ovis aries, Erythrocyte; conditions: sheep red blood cells
[6] = test system: Enterococcus faecalis; assay: Drug resistance, ratio of MIC for Enterococcus faecalis measured after 15 days to MIC for Enterococcus faecalis measured after 16 to 18 hrs; assay type: functional

For `CC(=O)NC[C@H]1CN(c2ccc(N3CCN(C(=O)C[N+](C)(C)Cc4ccc(C#N)cc4)CC3)c(F)c2)C(=O)O1.[Br-]`, the MIC [1] was > 128 µg/mL, the MIC [2] was 32 µg/mL and the MIC [3] was > 128 µg/mL. The MIC [4] was > 128 µg/mL and the HC50 at 1 h [5] was > 1280 µg/mL.
Molecule `CCn1cc(C(=O)O)c(=O)c2cc(F)c(N3CCNCC3)cc21` [NORFLOXACIN] has a Ratio [6] of 4.
With `CC(=O)NC[C@H]1CN(c2ccc(N3CCN(C(=O)CN(C)Cc4ccc(Cl)cc4)CC3)c(F)c2)C(=O)O1` the MIC [1] was 16 µg/mL (≈ 30.1 µM), the MIC [2] was 2 µg/mL (≈ 3.76 µM) and the MIC [3] was > 128 µg/mL. For the same molecule, the MIC [4] was > 128 µg/mL and the HC50 at 1 h [5] was > 1280 µg/mL.
With `CCCCCC[N+](C)(C)CC(=O)N1CCN(c2ccc(N3C[C@H](CNC(C)=O)OC3=O)cc2F)CC1.[Br-]` the MIC [1] was 128 µg/mL, the MIC [2] was 8 µg/mL and the MIC [3] was > 128 µg/mL. For the same molecule, the MIC [4] was > 128 µg/mL and the HC50 at 1 h [5] was > 1280 µg/mL.
With `CC(=O)NC[C@H]1CN(c2ccc(N3CCN(C(=O)CN(C)Cc4cccc(C)c4)CC3)c(F)c2)C(=O)O1` the MIC [1] was 16 µg/mL (≈ 31.3 µM), the MIC [2] was 4 µg/mL (≈ 7.82 µM) and the MIC [3] was > 128 µg/mL. The MIC [4] was > 128 µg/mL and the HC50 at 1 h [5] was > 1280 µg/mL.
For `Br.CC(=O)NC[C@H]1CN(c2ccc(N3CCN(C(=O)C[N+](C)(C)Cc4ccc([N+](=O)[O-])cc4)CC3)c(F)c2)C(=O)O1`, the MIC [1] was 128 µg/mL, the MIC [2] was 128 µg/mL and the MIC [3] was > 128 µg/mL. For the same molecule, the MIC [4] was > 128 µg/mL and the HC50 at 1 h [5] was > 1280 µg/mL.
